Source: patent US8546389B2 (priority 2010, dated 2013)
Where two headings read alike, the source gives them in different places.

How the values were obtained:
[1] = molecular target: genotype 3a (VRL-69) NS5bΔ21 polymerase (Hepatitis C virus genotype 3a, UniProt Q81258); experiment: HCV polymerase inhibition assay, genotype 3a; type: biochemical, HCV genotype 3a (VRL-69)
Description: HCV polymerase reactions were carried out using a modified method of Howe et al., Antimicrobial Agents and Chemotherapy 2004 48(12): 4813-4821. Reactions contained a final concentration of, 0.5% DMSO, 50 nM, 1b (BK) NS5bΔ21, 20 mM Tris-HCl pH 7.5, 5 mM MgCl2, 5 mM MnCl2, 3 mM DTT, 0.05% BSA, 0.2 U/μL RNasin, 10 μg/mL Poly(rC) template, GTP (at Km) and 0.05 μCi/μL ^33P-GTP in a total reaction volume of 50 μL. Compounds were tested in a three fold dilution series, for example starting from 50 μM. Reactions were initiated with the addition of GTP and terminated after 1 hour with 50 μL ice cold 0.2 M EDTA. Terminated reactions were transferred to DEAE 96-well filter plates, unincorporated nucleotides washed from the filters and 50 μL scintillation fluid added prior to reading on a scintillation counter. Similarly, a genotype 3a (VRL-69) NS5bΔ21 polymerase enzyme assay was conducted using essentially the same method.
The compound concentration that reduced ^33P-GTP incorporation by 50% (IC50) was calculated using non-linear regression.

1b (BK) NS5bΔ21 = 1b (BK) NS5bΔ21 (Hepatitis C virus genotype 1b (isolate BK) (HCV), UniProt P26663); experiment: HCV polymerase inhibition assay, genotype 1b; type: biochemical, HCV genotype 1b (BK)
Procedure, shortened: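 Both genotype 1b and 3a enzymes assayed identically: ^33P-GTP incorporation on poly(rC) template, GTP at Km, 50 nM NS5bΔ21, pH 7.5 Tris with 5 mM MgCl2 and MnCl2, 1 h reaction ended by cold EDTA. Filter-bound label counted; IC50 fitted by non-linear regression across three-fold dilution series.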

[2] = system: subgenomic genotype 2a replicon cell line; experiment: HCV replicon assay, genotype 2a; type: cell-based, HCV genotype 2a; conditions: Hepatitis C virus
Description: (§1) A genotype 1b (Con 1) subgenomic replicon cell line based on Blight et al., Science 2000 290: 1972-1974, modified to express a Renilla luciferase reporter gene was used to assess antiviral activity of test compounds. Cell cultures were maintained in a sub-confluent state in DMEM with glutamine, 10% heat-inactivated foetal bovine serum (FBS) and G418 (Geneticin®).
(§2) For assay, cells were seeded at a density of 7000 cells/well into 96 well tissue culture trays in culture media lacking G418. Compounds were tested in a three fold dilution series, for example starting from 50 uM. After 72 hours incubation at 37° C. and 5% CO2, Renilla luciferase activity was quantified via the Promega Renilla Luciferase or Renilla-Glo™ Luciferase Assay Systems (Promega corporation. The same method was employed for replicon assays using subgenomic genotype 1a and 2a replicon cell lines with a seeding cell density of 5000 cells/well for the 2a cell lines.
(§3) The compound concentration that reduced luciferase activity by 50% (EC50) was calculated using non-linear regression.

[3] = system: genotype 1b (Con 1) subgenomic replicon cell line; experiment: HCV replicon assay, genotype 1b (Renilla luciferase); type: cell-based, HCV genotype 1b (Con 1); conditions: Hepatitis C virus, genotype 1b replicon
Procedure, shortened: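 Subgenomic replicon cells expressing Renilla luciferase (1b Con1; 1a and 2a lines by the same method) seeded at 7000 cells/well (5000 for 2a) without G418, exposed to 3-fold compound dilutions for 72 h at 37 °C. Luciferase activity measured; EC50 by non-linear regression.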

[4] = system: subgenomic genotype 1a replicon cell line; experiment: HCV replicon assay, genotype 1a; type: cell-based, HCV genotype 1a; conditions: Hepatitis C virus
Description: as §1, §2, §3

[5] = 1b (BK) NS5bΔ21, 33P-GTP incorporation, read-out: 1b polymerase IC50 (range class)
[6] = genotype 1b, read-out: 1b NS5b polymerase IC50
[7] = 72 hours, luciferase, read-out: genotype 1b EC50 (range class)
[8] = genotype 3a, read-out: 3a NS5b polymerase IC50

genotype 3a (VRL-69) NS5bΔ21 polymerase, sequence (Q81258 whole entry, looked up, stated change not applied): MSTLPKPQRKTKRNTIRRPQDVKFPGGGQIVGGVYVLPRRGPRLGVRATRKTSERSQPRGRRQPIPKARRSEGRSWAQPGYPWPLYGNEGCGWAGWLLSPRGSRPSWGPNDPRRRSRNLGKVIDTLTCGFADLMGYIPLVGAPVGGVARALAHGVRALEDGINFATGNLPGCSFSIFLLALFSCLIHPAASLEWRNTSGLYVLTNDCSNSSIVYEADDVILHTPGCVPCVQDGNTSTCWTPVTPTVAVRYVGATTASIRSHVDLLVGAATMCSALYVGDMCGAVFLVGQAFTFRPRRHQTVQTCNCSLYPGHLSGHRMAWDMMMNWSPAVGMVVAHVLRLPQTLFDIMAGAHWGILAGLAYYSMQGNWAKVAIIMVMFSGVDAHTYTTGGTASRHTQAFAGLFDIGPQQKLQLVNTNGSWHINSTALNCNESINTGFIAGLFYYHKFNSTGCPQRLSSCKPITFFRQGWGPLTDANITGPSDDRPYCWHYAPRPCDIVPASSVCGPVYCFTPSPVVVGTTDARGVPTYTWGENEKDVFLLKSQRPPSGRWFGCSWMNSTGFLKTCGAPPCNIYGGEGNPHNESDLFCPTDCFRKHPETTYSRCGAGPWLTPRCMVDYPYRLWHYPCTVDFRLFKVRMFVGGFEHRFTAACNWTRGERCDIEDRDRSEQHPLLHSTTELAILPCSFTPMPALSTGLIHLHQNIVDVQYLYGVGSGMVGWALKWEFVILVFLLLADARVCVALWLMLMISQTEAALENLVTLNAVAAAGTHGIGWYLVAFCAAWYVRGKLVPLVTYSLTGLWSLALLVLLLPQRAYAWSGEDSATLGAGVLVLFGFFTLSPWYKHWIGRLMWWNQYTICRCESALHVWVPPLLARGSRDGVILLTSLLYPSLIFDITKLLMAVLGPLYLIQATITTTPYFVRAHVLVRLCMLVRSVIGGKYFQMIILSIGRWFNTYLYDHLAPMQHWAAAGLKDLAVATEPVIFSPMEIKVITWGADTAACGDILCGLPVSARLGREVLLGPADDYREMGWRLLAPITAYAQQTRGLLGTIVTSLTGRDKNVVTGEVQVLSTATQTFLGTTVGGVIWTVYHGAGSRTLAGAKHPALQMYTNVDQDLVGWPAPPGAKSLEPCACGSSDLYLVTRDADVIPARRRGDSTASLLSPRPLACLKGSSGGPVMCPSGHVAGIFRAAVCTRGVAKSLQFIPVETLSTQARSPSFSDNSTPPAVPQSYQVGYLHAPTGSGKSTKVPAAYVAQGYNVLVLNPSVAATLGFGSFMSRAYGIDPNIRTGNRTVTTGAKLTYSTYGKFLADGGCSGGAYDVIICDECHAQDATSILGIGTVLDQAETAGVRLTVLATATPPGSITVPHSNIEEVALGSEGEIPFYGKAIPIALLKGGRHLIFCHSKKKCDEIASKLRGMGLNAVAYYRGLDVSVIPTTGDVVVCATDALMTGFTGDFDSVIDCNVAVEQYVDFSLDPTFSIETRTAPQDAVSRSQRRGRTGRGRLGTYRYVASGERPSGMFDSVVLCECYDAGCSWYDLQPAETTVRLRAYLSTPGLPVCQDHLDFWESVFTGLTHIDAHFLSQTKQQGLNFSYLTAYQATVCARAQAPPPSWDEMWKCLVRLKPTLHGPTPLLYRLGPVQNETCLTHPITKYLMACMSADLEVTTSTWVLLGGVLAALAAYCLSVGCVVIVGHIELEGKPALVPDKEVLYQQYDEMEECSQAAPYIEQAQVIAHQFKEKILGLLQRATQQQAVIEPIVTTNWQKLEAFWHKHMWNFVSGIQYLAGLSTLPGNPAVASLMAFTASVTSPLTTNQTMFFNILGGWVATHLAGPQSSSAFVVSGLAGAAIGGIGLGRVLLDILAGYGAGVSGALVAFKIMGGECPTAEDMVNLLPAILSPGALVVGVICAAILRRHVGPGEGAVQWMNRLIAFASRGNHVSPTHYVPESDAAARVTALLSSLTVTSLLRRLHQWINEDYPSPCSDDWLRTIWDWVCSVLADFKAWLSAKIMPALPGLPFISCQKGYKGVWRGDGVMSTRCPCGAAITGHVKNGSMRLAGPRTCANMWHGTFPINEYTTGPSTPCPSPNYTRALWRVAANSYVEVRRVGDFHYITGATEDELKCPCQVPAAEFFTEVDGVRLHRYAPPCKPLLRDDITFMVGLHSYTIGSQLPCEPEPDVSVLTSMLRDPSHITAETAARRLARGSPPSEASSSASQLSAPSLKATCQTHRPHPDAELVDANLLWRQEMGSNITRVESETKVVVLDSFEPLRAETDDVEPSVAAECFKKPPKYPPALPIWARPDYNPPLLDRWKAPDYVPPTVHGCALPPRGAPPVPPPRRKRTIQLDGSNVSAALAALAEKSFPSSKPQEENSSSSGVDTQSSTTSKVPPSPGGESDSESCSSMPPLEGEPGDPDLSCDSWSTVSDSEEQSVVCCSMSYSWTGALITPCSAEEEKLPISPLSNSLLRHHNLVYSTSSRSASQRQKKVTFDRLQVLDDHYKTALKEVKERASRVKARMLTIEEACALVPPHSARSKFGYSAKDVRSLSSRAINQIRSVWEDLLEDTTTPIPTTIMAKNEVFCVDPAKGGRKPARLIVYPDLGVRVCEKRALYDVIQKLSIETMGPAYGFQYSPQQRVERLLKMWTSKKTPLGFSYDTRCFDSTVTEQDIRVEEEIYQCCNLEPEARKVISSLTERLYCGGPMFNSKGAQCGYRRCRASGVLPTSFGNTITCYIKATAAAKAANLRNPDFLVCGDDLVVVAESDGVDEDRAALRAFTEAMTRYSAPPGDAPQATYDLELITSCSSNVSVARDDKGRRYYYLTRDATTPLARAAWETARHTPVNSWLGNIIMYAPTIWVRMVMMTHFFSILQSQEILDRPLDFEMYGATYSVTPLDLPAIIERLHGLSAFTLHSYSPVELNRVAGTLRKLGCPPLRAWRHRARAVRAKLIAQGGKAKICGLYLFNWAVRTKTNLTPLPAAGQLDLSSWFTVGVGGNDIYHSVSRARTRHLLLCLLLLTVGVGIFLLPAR
1b (BK) NS5bΔ21, sequence (P26663 2420-2989): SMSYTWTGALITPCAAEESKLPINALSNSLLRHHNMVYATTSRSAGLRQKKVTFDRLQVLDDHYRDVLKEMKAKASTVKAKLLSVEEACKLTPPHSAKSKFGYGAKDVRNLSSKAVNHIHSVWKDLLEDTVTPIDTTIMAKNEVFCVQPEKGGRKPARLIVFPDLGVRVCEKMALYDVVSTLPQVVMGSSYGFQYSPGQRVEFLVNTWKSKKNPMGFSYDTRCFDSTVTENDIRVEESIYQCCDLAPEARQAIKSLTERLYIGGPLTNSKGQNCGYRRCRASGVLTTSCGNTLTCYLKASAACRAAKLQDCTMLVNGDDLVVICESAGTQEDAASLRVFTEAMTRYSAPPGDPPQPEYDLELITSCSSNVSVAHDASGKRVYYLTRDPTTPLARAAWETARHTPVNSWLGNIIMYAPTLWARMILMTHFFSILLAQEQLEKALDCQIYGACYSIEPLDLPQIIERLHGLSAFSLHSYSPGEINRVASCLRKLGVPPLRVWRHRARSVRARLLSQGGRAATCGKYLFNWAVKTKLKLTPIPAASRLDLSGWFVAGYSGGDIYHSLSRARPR

| Structure (SMILES) | IC50 [1] | IC50 (1b (BK) NS5bΔ21; [5]) | IC50 (1b (BK) NS5bΔ21; [6]) | EC50 [2] | EC50 [3, 7] | EC50 ([3]; read-out: Replicon 1b EC50) | EC50 [4] | IC50 [1, 8] |
| --- | --- | --- | --- | --- | --- | --- | --- | --- |
| CCOC(=O)CCN(c1cc2nn(-c3ccc(Br)cc3)c(C(=O)NC)c2cc1C1CC1)S(C)(=O)=O [Compound 131] | 470 nM | < 990 nM | 370 nM | 3790 nM | < 990 nM | 140 nM | 450 nM |  |
| CNC(=O)c1c2cc(C3CC3)c(N(CCCNS(C)(=O)=O)S(C)(=O)=O)cc2nn1-c1ccc(Br)cc1 [Compound 134] |  | < 990 nM | 90 nM | 5020 nM | < 990 nM | 110 nM | 540 nM | 30 nM |
| CCN(c1cc2nn(-c3ccc(Oc4ccc(F)cc4)nc3)c(C(=O)NC)c2cc1C1CC1)S(C)(=O)=O [Compound 136] |  | 1000 to 9990 nM | 1550 nM | 1800 nM | < 990 nM | 270 nM | 1530 nM | 820 nM |
| CNC(=O)c1c2cc(C3CC3)c(N(CCCNC(=O)C(C)C)S(C)(=O)=O)cc2nn1-c1ccc(Br)cc1 [Compound 156] |  | < 990 nM | 250 nM | 1510 nM | < 990 nM | 210 nM | 210 nM | 70 nM |
| CNC(=O)c1c2cc(C3CC3)c(N(CCCNC(=O)c3ccoc3)S(C)(=O)=O)cc2nn1-c1ccc(Br)cc1 [Compound 160] |  | < 990 nM | 70 nM | 780 nM | < 990 nM | 90 nM | 340 nM | 40 nM |
| CCOC(=O)CCC(=O)NCCCN(c1cc2nn(-c3ccc(Br)cc3)c(C(=O)NC)c2cc1C1CC1)S(C)(=O)=O [Compound 164] |  | < 990 nM | 520 nM | 620 nM | < 990 nM | 210 nM | 10 nM | 40 nM |
| CNC(=O)c1c2cc(C3CC3)c(N(CCCNC(=O)c3ccccc3)S(C)(=O)=O)cc2nn1-c1ccc(Br)cc1 [Compound 166] |  | < 990 nM | 160 nM | 340 nM | < 990 nM | 20 nM | 20 nM | 30 nM |
| CCCC(=O)NCCCN(c1cc2nn(-c3ccc(Br)cc3)c(C(=O)NC)c2cc1C1CC1)S(C)(=O)=O [Compound 171] |  | < 990 nM | 310 nM | 4260 nM | < 990 nM | 210 nM | 280 nM | 40 nM |
| CNC(=O)c1c2cc(C3CC3)c(N(CCCNC(=O)C(F)(F)F)S(C)(=O)=O)cc2nn1-c1ccc(Br)cc1 [Compound 172] |  | < 990 nM | 110 nM | 1830 nM | < 990 nM | 60 nM | 60 nM | 40 nM |
| CNC(=O)c1c2cc(C3CC3)c(N(CCCNC(=O)c3ccnc(OC)c3)S(C)(=O)=O)cc2nn1-c1ccc(Br)cc1 [Compound 177] |  | < 990 nM | 280 nM | 310 nM | < 990 nM | 70 nM | 110 nM | 60 nM |
| CNC(=O)c1c2cc(C3CC3)c(N(CCCNC(=O)c3nonc3C)S(C)(=O)=O)cc2nn1-c1ccc(Br)cc1 [Compound 179] |  | < 990 nM | 260 nM | 520 nM | < 990 nM | 70 nM | 180 nM | 30 nM |
| CNC(=O)c1c2cc(C3CC3)c(N(CCCNC(=O)c3cnn(C)c3C)S(C)(=O)=O)cc2nn1-c1ccc(Br)cc1 [Compound 180] |  | < 990 nM | 370 nM | 1110 nM | < 990 nM | 140 nM | 570 nM | 50 nM |
| CNC(=O)c1c2cc(C3CC3)c(N(CCCNC(=O)c3cccc(OC)c3F)S(C)(=O)=O)cc2nn1-c1ccc(Br)cc1 [Compound 189] |  | < 990 nM | 130 nM | 230 nM | < 990 nM | 30 nM | 80 nM | 50 nM |
| CNC(=O)c1c2cc(C3CC3)c(N(CCCNC(=O)c3cccnc3OC)S(C)(=O)=O)cc2nn1-c1ccc(Br)cc1 [Compound 190] |  | < 990 nM | 830 nM | 430 nM | < 990 nM | 70 nM | 90 nM | 40 nM |
| CNC(=O)c1c2cc(C3CC3)c(N(CCCNC(=O)c3cccnc3)S(C)(=O)=O)cc2nn1-c1ccc(Br)cc1 [Compound 191] |  | < 990 nM | 430 nM | 2590 nM | < 990 nM | 190 nM | 400 nM | 20 nM |
| CNC(=O)c1c2cc(C3CC3)c(N(CCCN3CCOCC3)S(C)(=O)=O)cc2nn1-c1ccc(Br)cc1 [Compound 200] |  | < 990 nM | 220 nM | 1050 nM | < 990 nM | 170 nM | 650 nM | 40 nM |
| CNC(=O)c1c2cc(C3CC3)c(N(CCCNC(=O)[C@H]3CCC[C@@H]3C(=O)OC)S(C)(=O)=O)cc2nn1-c1ccc(Br)cc1 [Compound 216] |  | < 990 nM | 180 nM | 680 nM | < 990 nM | 40 nM | 130 nM | 20 nM |
| CNC(=O)c1c2cc(C3CC3)c(N(C)S(C)(=O)=O)cc2nn1-c1ccc(Br)cc1 [Compound 234] |  | < 990 nM | 140 nM | 420 nM | < 990 nM | 80 nM | 240 nM | 20 nM |
| CNC(=O)c1c2cc(C3CC3)c(N(CCC3COC(C)(C)OC3)S(C)(=O)=O)cc2nn1-c1ccc(Cl)cc1 [Compound 235] |  | < 990 nM | 90 nM | 140 nM | < 990 nM | 40 nM | 280 nM | 30 nM |
